From ChEMBL document CHEMBL1142367, “1H-Pyrazolo[3,4-g]hexahydro-isoquinolines as selective glucocorticoid receptor antagonists with high functional activity” (Bioorg Med Chem Lett, 2008)

Key:
Canis familiaris = experiment: AUC in dog at […], po; assay type: ADME, organism-based, Canis lupus familiaris, Plasma; set-up: dose 2.5 mg/kg, route oral; conditions: in vivo
[1] = Half life in dog at […], po; assay type: ADME, organism-based, Canis lupus familiaris; set-up: dose 2.5 mg/kg, route oral; conditions: in vivo
[2] = Oral bioavailability in dog at […]; assay type: ADME, organism-based, Canis lupus familiaris; conditions: in vivo
[3] = Metabolic stability in human liver microsomes after 30 mins; assay type: ADME, Microsome; conditions: read-out: Stability
Glucocorticoid receptor [4] = biological target: T1, Glucocorticoid receptor (Homo sapiens, UniProt P04150); experiment: Displacement of [3H]dexamethasone from human recombinant GR
T1 sequence (P04150 whole entry): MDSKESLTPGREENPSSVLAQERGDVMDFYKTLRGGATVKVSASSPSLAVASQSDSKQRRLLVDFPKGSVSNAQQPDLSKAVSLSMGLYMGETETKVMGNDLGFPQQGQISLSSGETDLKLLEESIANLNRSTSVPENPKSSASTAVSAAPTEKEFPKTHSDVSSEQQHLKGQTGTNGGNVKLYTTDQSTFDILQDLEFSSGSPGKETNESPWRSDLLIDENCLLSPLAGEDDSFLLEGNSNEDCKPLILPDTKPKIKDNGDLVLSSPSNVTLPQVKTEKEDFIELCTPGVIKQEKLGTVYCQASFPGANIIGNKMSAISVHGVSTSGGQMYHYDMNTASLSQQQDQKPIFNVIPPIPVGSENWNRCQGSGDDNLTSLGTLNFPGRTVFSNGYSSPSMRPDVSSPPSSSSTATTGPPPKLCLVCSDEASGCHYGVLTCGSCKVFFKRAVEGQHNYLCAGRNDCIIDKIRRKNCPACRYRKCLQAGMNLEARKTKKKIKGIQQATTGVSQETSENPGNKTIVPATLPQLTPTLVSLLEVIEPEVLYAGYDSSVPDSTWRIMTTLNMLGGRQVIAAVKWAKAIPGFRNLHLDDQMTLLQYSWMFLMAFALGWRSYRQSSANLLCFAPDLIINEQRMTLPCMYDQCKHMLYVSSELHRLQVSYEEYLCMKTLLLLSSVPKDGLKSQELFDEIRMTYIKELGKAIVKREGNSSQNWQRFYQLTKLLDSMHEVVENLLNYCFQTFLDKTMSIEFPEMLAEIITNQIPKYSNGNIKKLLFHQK

Glucocorticoid receptor [5] = biological target: T1, Glucocorticoid receptor; experiment: Antagonist activity at GR in SW1353/MMTV5 cells assessed as inhibition of dexamethasone-induced luciferase expression; assay type: functional, cell-based
[6] = Cmax in rat at 5 mg/kg, po; assay type: ADME, organism-based; set-up: dose 5 mg/kg, route oral; conditions: in vivo
Rattus norvegicus = experiment: AUC in rat at 5 mg/kg, po; assay type: ADME, organism-based, Plasma; set-up: dose 5 mg/kg, route oral; conditions: in vivo
[7] = Half life in rat at 5 mg/kg, po; assay type: ADME, organism-based; set-up: dose 5 mg/kg, route oral; conditions: in vivo
[8] = Oral bioavailability in rat at 5 mg/kg; assay type: ADME, organism-based; conditions: in vivo
[9] = Ratio of drug level in brain to plasma in rat at 5 mg/kg, po; assay type: ADME, organism-based; set-up: dose 5 mg/kg, route oral; conditions: read-out: BPR
[10] = Cmax in dog at […], po; assay type: ADME, organism-based, Canis lupus familiaris; set-up: dose 2.5 mg/kg, route oral; conditions: in vivo
[11] = Oral bioavailability in rat; assay type: ADME, organism-based; conditions: in vivo

Compound | AUC (Canis familiaris) | half-life [1] | bioavailability [2] | remaining at 0.5 h [3] | Ki (Glucocorticoid receptor [4]) | Ki (Glucocorticoid receptor [5]) | Cmax [6] | AUC (Rattus norvegicus) | half-life [7] | bioavailability [8] | Kp [9] | Cmax [10] | bioavailability [11]
COC[C@]12Cc3cnn(-c4ccc(F)cc4)c3C=C1CCN(S(=O)(=O)c1ccc(F)cc1)C2 | 1.676 µg/h/mL | 252 min | 54% | 57% | 1.4 nM | 33 nM | 106 ng/mL | 0.621 µg/h/mL | 126 min | 22% | 1.1 | 381 ng/mL | –
COCCOC[C@]12Cc3cnn(-c4ccc(F)cc4)c3C=C1CCN(S(=O)(=O)c1ccc(C(C)(C)C)cc1)C2 | – | – | – | – | 0.7 nM | 0.6 nM | – | – | – | – | – | – | 0%
CC(C)(C)c1ccc(S(=O)(=O)N2CCC3=Cc4c(cnn4-c4ccc(F)cc4)C[C@]3(CN3CCOCC3)C2)cc1 | – | – | – | – | 0.9 nM | 7.1 nM | 75 ng/mL | 0.302 µg/h/mL | 120 min | 10% | 0.1 | – | –
COC[C@]12Cc3cnn(-c4ccc(F)cc4)c3C=C1CCN(S(=O)(=O)c1ccc(C(F)(F)F)cc1)C2 | 3.638 µg/h/mL | 402 min | 58% | – | 0.8 nM | 28 nM | 163 ng/mL | 0.966 µg/h/mL | 204 min | 16% | 0.83 | 647 ng/mL | –
CC(C)(C)c1ccc(S(=O)(=O)N2CCC3=Cc4c(cnn4-c4ccc(F)cc4)C[C@]3(C)C2)cc1 | 1.684 µg/h/mL | 252 min | 26% | – | 1.2 nM | 53 nM | 199 ng/mL | 1.009 µg/h/mL | 162 min | 13% | 0.07 | 524 ng/mL | –
COC[C@]12Cc3cnn(-c4ccc(F)cc4)c3C=C1CCN(S(=O)(=O)c1ccc(C(C)(C)C)cc1)C2 | – | – | – | – | 0.8 nM | 7.7 nM | 94 ng/mL | 0.43 µg/h/mL | 174 min | 11% | 0.1 | – | –
COC[C@]12Cc3cnn(-c4ccc(F)cc4)c3C=C1CCN(S(=O)(=O)c1ccccc1)C2 | 0.894 µg/h/mL | 354 min | 20% | – | 1 nM | 20 nM | 23 ng/mL | 0.112 µg/h/mL | 216 min | 3% | 0.75 | 258 ng/mL | –
COCCOC[C@]12Cc3cnn(-c4ccc(F)cc4)c3C=C1CCN(S(=O)(=O)c1ccc(F)cc1)C2 | – | – | – | 7% | 0.6 nM | 5.2 nM | – | – | – | – | – | – | –
